# Measurements as given in article PMC6896740, “Safety, tolerability, pharmacokinetics, and pharmacodynamics of PF-06650833, a selective interleukin-1 receptor-associated kinase 4 (IRAK4) inhibitor, in single and multiple ascending dose randomized phase 1 studies in healthy subjects” (Arthritis Research & Therapy, 2019).
# Read-outs that look alike come from different tables or passages of the source.
# Test: Study 2 (MAD) plasma and urine pharmacokinetics
# Format: in vivo, human
# Details: for AUC: read-out: AUCtau, geometric mean (%CV); for Cmax: read-out: Cmax, geometric mean (%CV); for Tmax: read-out: Tmax, median (range)
# Experimental: Subjects were enrolled sequentially into seven cohorts. Within each cohort, eight subjects and two subjects were randomized to receive PF-06650833 and placebo, respectively. Doses for all cohorts were administered after a standard (not high-fat) meal. Multiple dosing regimens (once daily [QD] 24 h apart, twice daily [BID] 12 h apart, three times per day [TID] 8 h apart, and four times per day [QID] 6 h apart) were used to provide required total daily doses. In the final dosing scheme, multiple oral doses of PF-06650833 IR suspension formulations at 25, 100, 250, and 750 mg BID and 1000 mg QID were administered in cohorts 1–5. PF-06650833 IR 330 mg TID (cohort 6) and an MR tablet at a dose of 300 mg QD (cohort 7) were also evaluated (see Fig. 1b for final dosing scheme).
# For both studies, samples of blood (and urine in study 2) were taken for evaluation of PK/PD parameters (see Additional file 1: Supplemental Methods). PK samples were obtained at the nominal time relative to dosing (± 10%). Plasma and urine samples were analyzed using validated, sensitive, and specific liquid chromatography tandem mass spectrometric methods (at Pfizer Inc., Groton, CT, USA, for study 1 and at Worldwide Pharmacokinetics, Dynamics and Metabolism, Cambridge, MA, USA, for study 2). The lower limit of quantification for PF-06650833 in plasma was 0.0500 ng/mL. The lower limit of quantification for PF-06650833 in urine was 1.00 ng/mL. Serum samples were also analyzed for hsCRP, and plasma samples were analyzed for 4β-hydroxycholesterol and cholesterol.
# PK parameters were calculated using non-compartmental analysis of concentration-time data. For study 1 only, data from cohort 1 (period 4 [IR 30 mg] versus period 5 [IR 30 mg + food]) and cohort 3 (period 2 [MR 30 mg] versus period 3 [MR 30 mg + food]) were used to estimate the effect of food intake. Cmax and AUC were calculated for each subject and treatment, with and without food, after which a within-subject difference could be found between fed (high-fat meal) and fasted doses. Analysis of covariance was used to model these within-subject differences and to calculate 95% confidence intervals (CIs) for the differences for each dose (IR 30 mg and MR 30 mg). For study 2 only, the amounts of PF-06650833 in urine and renal clearance were listed and summarized descriptively. As part of the routine safety laboratory monitoring, the presence of any atypical crystals in urine specimens was semi-quantitatively assessed microscopically by typical histopathologic methods and scored as numbers of crystals per high power field (hpf); higher abundance (moderate or many) was defined as ≥ 15/hpf. No formal interim analyses were conducted.
# 22 In Study 2, pre-dose blood samples were collected for PK analysis on days 1, 2, 4, 7, 10, and
# 23 14. Post-dose samples were collected for PK analysis on days 1 and 14 at 0.5, 1, 2, 4, 6, 8, 10,
# 24 12, and 16 hours post-dose; on day 7 at 1, 2, 4, 6, 8, and 12 hours post-dose; and on days 15,
# 27 hours post-dose. […]
# 32 Blood samples (2 mL, to obtain ≥0.5 mL plasma) were collected in K2EDTA tubes
# 33 (dipotassium ethylenediaminetetraacetic acid) and centrifuged at ~1700 x g for 10 minutes at
# 34 4 °C, with plasma then stored in polypropylene tubes at -70 °C within 1 hour of collection.
# 35 Plasma samples were analyzed using a validated, sensitive , and specific liquid
# 36 chromatography tandem mass spectrometric method (LC -MS; at Pfizer Inc, Groton, CT, USA
# 37 for Study 1; and at Worldwide Pharmaco kinetics, Dynamics, and Metabolism, Cambridge,
# 38 MA, USA for Study 2). The lower limit of quantification (LLOQ) for PF-06650833 in plasma
# 39 was 0.0500 ng/mL. Between-day assay accuracy values were also calculated (not shown).
# 40 In Study 2 only, urine samples we re collected in aliquots pre-dose. Cumulative 0–12-hour
# 41 and 12–24-hour urine samples were also collected as follows: from day 1 after morning
# 42 dosing to day 2 before morning dosing (and before breakfast) for cohorts 6 –8 only; and from […]
# [1] = IR 25 mg BID, day 14, fed (standard meal)
# [2] = IR 100 mg BID, day 14, fed (standard meal)
# [3] = IR 250 mg BID, day 14, fed (standard meal)
# [4] = IR 330 mg TID, day 14, fed (standard meal)
# [5] = IR 750 mg BID, day 14, fed (standard meal)
# [6] = MR 300 mg QD, day 14, fed (standard meal)
# [7] = human, plasma, oral, 25 mg, IR 25 mg BID, day 1, fed (standard meal)
# [8] = human, plasma, oral, 25 mg, IR 25 mg BID, day 14, fed (standard meal)
# [9] = human, plasma, oral, 100 mg, IR 100 mg BID, day 1, fed (standard meal)
# [10] = human, plasma, oral, 100 mg, IR 100 mg BID, day 14, fed (standard meal)
# [11] = human, plasma, oral, 250 mg, IR 250 mg BID, day 1, fed (standard meal)
# [12] = human, plasma, oral, 250 mg, IR 250 mg BID, day 14, fed (standard meal)
# [13] = human, plasma, oral, 300 mg, MR 300 mg QD, day 1, fed (standard meal)
# [14] = human, plasma, oral, 300 mg, MR 300 mg QD, day 14, fed (standard meal)
# [15] = human, plasma, oral, 330 mg, IR 330 mg TID, day 1, fed (standard meal)
# [16] = human, plasma, oral, 330 mg, IR 330 mg TID, day 14, fed (standard meal)
# [17] = human, plasma, oral, 750 mg, IR 750 mg BID, day 1, fed (standard meal)
# [18] = human, plasma, oral, 750 mg, IR 750 mg BID, day 14, fed (standard meal)
# [19] = human, plasma, oral, 1000 mg, IR 1000 mg QID, day 1, fed (standard meal)
compound,measurement,setting,value
"CC[C@@H]1[C@H](F)C(=O)N[C@@H]1COc1nccc2cc(C(N)=O)c(OC)cc12 [PF-06650833, 1-{[(2S,3S,4S)-3-Ethyl-4-fluoro-5-oxopyrrolidin-2-yl]methoxy}-7-methoxyisoquinoline-6-carboxamide]","Tmax, median (range)","IR 25 mg BID, day 1, fed (standard meal)",2.03 (1.00–4.00) h
same,"Ae24% (drug recovered unchanged in urine up to 24 h), geometric mean (%CV)",[1],0.7288 (27) %
same,"CL/F, geometric mean (%CV)",[1],122.4 (26) L/h
same,"Cav, geometric mean (%CV)",[1],17.03 (26) ng/mL
same,"Cmin, geometric mean (%CV)",[1],4.064 (46) ng/mL
same,"PTF (peak-trough fluctuation), geometric mean (%CV)",[1],1.868 (21)
same,"Rac (observed accumulation ratio), geometric mean (%CV)",[1],1.250 (19)
same,"Ae24% (drug recovered unchanged in urine up to 24 h), geometric mean (%CV)",[2],0.9414 (29) %
same,"CL/F, geometric mean (%CV)",[2],128.9 (16) L/h
same,"Cav, geometric mean (%CV)",[2],64.72 (16) ng/mL
same,"Cmin, geometric mean (%CV)",[2],14.13 (40) ng/mL
same,"PTF (peak-trough fluctuation), geometric mean (%CV)",[2],1.740 (16)
same,"Rac (observed accumulation ratio), geometric mean (%CV)",[2],1.373 (23)
same,"Ae24% (drug recovered unchanged in urine up to 24 h), geometric mean (%CV)",[3],0.4822 (53) %
same,"CL/F, geometric mean (%CV)",[3],183.7 (39) L/h
same,"Cav, geometric mean (%CV)",[3],113.3 (39) ng/mL
same,"Cmin, geometric mean (%CV)",[3],20.07 (76) ng/mL
same,"PTF (peak-trough fluctuation), geometric mean (%CV)",[3],1.911 (14)
same,"Rac (observed accumulation ratio), geometric mean (%CV)",[3],1.009 (13)
same,"Ae24% (drug recovered unchanged in urine up to 24 h), geometric mean (%CV)",[4],0.6372 (34) %
same,"CL/F, geometric mean (%CV)",[4],206.1 (28) L/h
same,"Cav, geometric mean (%CV)",[4],200.1 (28) ng/mL
same,"Cmin, geometric mean (%CV)",[4],51.48 (68) ng/mL
same,"PTF (peak-trough fluctuation), geometric mean (%CV)",[4],1.307 (18)
same,"Rac (observed accumulation ratio), geometric mean (%CV)",[4],1.068 (26)
same,"Ae24% (drug recovered unchanged in urine up to 24 h), geometric mean (%CV)",[5],0.4885 (24) %
same,"CL/F, geometric mean (%CV)",[5],302.9 (24) L/h
same,"CLr (renal clearance), geometric mean (%CV)",[5],23.14 (19) mL/min
same,"Cav, geometric mean (%CV)",[5],206.3 (24) ng/mL
same,"Cmin, geometric mean (%CV)",[5],33.07 (50) ng/mL
same,"PTF (peak-trough fluctuation), geometric mean (%CV)",[5],1.868 (12)
same,"Rac (observed accumulation ratio), geometric mean (%CV)",[5],0.9377 (32)
same,"Ae24% (drug recovered unchanged in urine up to 24 h), geometric mean (%CV)",[6],0.300 (70) %
same,"CL/F, geometric mean (%CV)",[6],308.0 (65) L/h
same,"Cav, geometric mean (%CV)",[6],40.62 (65) ng/mL
same,"Cmin, geometric mean (%CV)",[6],6.471 (55) ng/mL
same,"PTF (peak-trough fluctuation), geometric mean (%CV)",[6],3.383 (37)
same,"Rac (observed accumulation ratio), geometric mean (%CV)",[6],0.8985 (24)
same,Dose recovered unchanged in urine,all dose groups,Less than 1%
same,Steady state reached by,"all dose groups, based on Cmin",≤ 4 days
same,AUC,[7],164 ng·h/mL
same,Cmax,[7],30 ng/mL
same,Tmax,[7],2 h
same,AUC,[8],204 ng·h/mL
same,Cmax,[8],36.2 ng/mL
same,Tmax,[8],2 h
same,AUC,[9],566 ng·h/mL
same,Cmax,[9],102 ng/mL
same,Tmax,[9],2.03 h
same,AUC,[10],776 ng·h/mL
same,Cmax,[10],128 ng/mL
same,Tmax,[10],2.02 h
same,AUC,[11],1350 ng·h/mL
same,Cmax,[11],226 ng/mL
same,Tmax,[11],4 h
same,AUC,[12],1360 ng·h/mL
same,Cmax,[12],238 ng/mL
same,Tmax,[12],2.02 h
same,AUC,[13],1150 ng·h/mL
same,Cmax,[13],149 ng/mL
same,Tmax,[13],4 h
same,AUC,[14],975 ng·h/mL
same,Cmax,[14],147 ng/mL
same,Tmax,[14],4 h
same,AUC,[15],1500 ng·h/mL
same,Cmax,[15],309 ng/mL
same,Tmax,[15],2.03 h
same,AUC,[16],1600 ng·h/mL
same,Cmax,[16],318 ng/mL
same,Tmax,[16],2 h
same,AUC,[17],2580 ng·h/mL
same,Cmax,[17],470 ng/mL
same,Tmax,[17],3.12 h
same,AUC,[18],2480 ng·h/mL
same,Cmax,[18],421 ng/mL
same,Tmax,[18],2 h
same,AUC,[19],2010 ng·h/mL
same,Cmax,[19],517 ng/mL
same,Tmax,[19],4 h
same,Tmax at 1 day,"human, plasma, oral, day 1, range across IR 25 to 1000 mg, standard meal, read-out: Median Tmax",2 to 4 h
same,Tmax at 14 day,"human, plasma, oral, day 14, IR formulations, standard meal, read-out: Median Tmax",2 h
same,half-life,"human, plasma, oral, range for IR 750 mg BID, IR 330 mg TID, MR 300 mg QD, read-out: Mean half-life at steady state",25.4 to 31.4 h
same,Vd/F,"human, plasma, oral, IR 25 mg BID, day 14, fed (standard meal), read-out: Vz/F, geometric mean (%CV)",9650 L
same,Vd/F,"human, plasma, oral, IR 100 mg BID, day 14, fed (standard meal), read-out: Vz/F, geometric mean (%CV)",8060 L
same,Vd/F,"human, plasma, oral, IR 250 mg BID, day 14, fed (standard meal), read-out: Vz/F, geometric mean (%CV)",10200 L
same,Vd/F,"human, plasma, oral, IR 330 mg TID, day 14, fed (standard meal), read-out: Vz/F, geometric mean (%CV)",10100 L
same,Vd/F,"human, plasma, oral, IR 750 mg BID, day 14, fed (standard meal), read-out: Vz/F, geometric mean (%CV)",13200 L
same,Vd/F at 14 day,"human, plasma, oral, MR 300 mg QD, day 14, fed (standard meal), read-out: Vz/F, geometric mean (%CV)",11600 L
same,Vd at 14 day,"human, plasma, oral, range across all dosages, day 14, read-out: Mean volume of distribution",8060 to 13200 L
same,CL renal,"human, urine and plasma, oral, 300 mg, MR 300 mg QD, day 14, fed (standard meal), read-out: CLr (renal clearance), geometric mean (%CV)",15.4 mL/min
same,CL renal,"human, urine and plasma, oral, 330 mg, IR 330 mg TID, day 14, fed (standard meal), read-out: CLr (renal clearance), geometric mean (%CV)",18.8 mL/min
same,CL renal,"human, urine and plasma, oral, range for IR < 750 mg and MR 300 mg, read-out: Renal clearance",14 to 23 mL/min
same,CL renal at 14 day,"human, urine, oral, 25 mg, IR 25 mg BID, day 14, fed (standard meal), read-out: CLr (renal clearance), geometric mean (%CV)",13.6 mL/min
same,CL renal at 14 day,"human, urine, oral, 100 mg, IR 100 mg BID, day 14, fed (standard meal), read-out: CLr (renal clearance), geometric mean (%CV)",18.5 mL/min
same,CL renal at 14 day,"human, urine, oral, 250 mg, IR 250 mg BID, day 14, fed (standard meal), read-out: CLr (renal clearance), geometric mean (%CV)",13.9 mL/min
same,CL renal,"human, urine, oral, 750 mg, IR 750 mg BID, day 14, fed (standard meal), read-out: CLr (renal clearance), geometric mean (%CV)",23 mL/min
same,CL renal,"human, urine, oral, range for IR 25 mg BID, IR 330 mg TID and MR 300 mg QD, read-out: Renal clearance",14 to 19 mL/min
